Patent publication US20200245616A1, “A Disinfectant Composition with Extended Antimicrobial Effects” (Siamons International Inc., priority 2017, published 2020)

How the values were obtained:
Type in all cases: cell-based
[1] = system: Staphylococcus aureus ATCC 6538; test: AOAC Official Method 961.02 Germicidal Spray Method, bacteria on glass carriers; details: 10 min contact
Source text: (§1) In this method, a series of glass slides (“carriers”) were inoculated with a representative test organism and the carriers were dried under ambient conditions. The dried organisms on the surface of the carrier were then sequentially treated with the composition of the present disclosure in the form of a spray product and were exposed for a pre-determined exposure time. After exposure, the carriers were sequentially transferred to a liquid subculture medium specifically selected to neutralize the composition of the present disclosure and to recover any surviving test organism. The carriers were incubated and visually examined for the presence or absence of growth. […] Required organisms for a disinfection claim include but are not limited to Staphylococcus aureus, Salmonella choleraesuis and Pseudomonas aeruginosa.
(§2) Method Adapted to the Preparation of Bacteria Cultures from −80° C. Freshly Recovered Stock. […] Added 10 μL of the thawed stock to a tube containing 10 mL synthetic broth and then vortexed to mix. Discarded the rest of cryovial stock. • Incubated the tube at 36 ±1° C. for 24 hours (h). Briefly vortexed the 24 h culture prior to transfer. For this final subculture step, inoculated two 20×150 mm tubes containing 10 mL synthetic broth with […] of the 24 h synthetic broth culture. • Incubated 48 h at 36±1° C. Using a Vortex-style mixer, mixed synthetic broth test cultures 3-4 seconds and let stand 10 minutes at room temperature before continuing. Removed the upper portion of each culture, leaving behind any debris or clumps, and transferred to a sterile tube. Titrated the culture by plating on synthetic agar plates, and diluted to 5×10^8 Colony Forming Units (CFU) per mL.
(§3) High volume screening studies were conducted in some cases where only 4 organism-inoculated carriers were treated at specified concentrations of CTAB. Vortex-mixed the inoculum periodically during inoculation of the carriers. • Immediately spread the inoculum uniformly over the majority of the carrier surface using a sterile loop. […] Covered dish immediately and repeated operation until 64 carriers had been prepared for the test. Once all of the carriers had been inoculated, placed in incubator at 37° C. for 40 minutes until dry.
(§4) • After the test organisms were dried on the surface of the carrier, each carrier was sprayed with the respective disinfection formulae 10 times in 10 seconds at a distance of 30 cm. • Treatment interval was timed. Ten (10) minutes after each carrier had been sprayed by the disinfectant, the excess liquid was removed and the carriers were transferred in a sequentially timed fashion into the culture tubes containing 20 ml neutralizer (Letheen Broth with 0.07% Lecithin/0.5% Tween 80/0.1% Sodium Thiosulfate) to neutralize the disinfectant. […] The percentage of the treated carriers showing growth after 48 hours was recorded.

[2] = system: Pseudomonas aeruginosa ATCC 15442; test: as above; details: for Pseudomonas aeruginosa Growth Rate: 10 min contact
Source text: as §1, §2, §3, §4

[3] = system: Aspergillus niger ATCC 6275; test: AOAC Official Method 961.02 Germicidal Spray Method, fungal conidia on glass carriers; details: 10 min contact
Source text: as §1
(§5) The conidiospore suspension was macerated in a tissue grinder. The suspension was filtered through sterile cotton to remove the hyphae and hyphal fragments.
(§6) Vortex-mixed the inoculum periodically during inoculation of the carriers. • Immediately spread the inoculum uniformly over the majority of the carrier surface using a sterile loop. […] High volume screening studies were conducted in some cases where only 4 organism-inoculated carriers were treated at specified concentrations of CTAB. Once all of the carriers had been inoculated, the carriers were placed in an incubator at 37° C. for 40 minutes until completely dry.
(§7) • After drying, each carrier was sprayed with the respective disinfection formulae 10 times in 10 seconds at a distance of 30 cm. • Timed the treatment interval. Ten (10) minutes after each carrier had been exposed to the disinfectant, the excess liquid was removed and the carriers were transferred in a sequentially timed fashion into the culture tubes containing 20 ml neutralization broth (Letheen Broth with 0.07% Lecithin /0.5% Tween 80) to neutralize the disinfectant. • After the carriers were deposited in the respective culture tubes, the tubes were recapped and the cultures were thoroughly resuspended. • Incubated all neutralization tubes at 28 ±1° C. for 14 days. • After 14 days, the cultures within the tubes were examined for growth. The percentage of the treated carriers showing growth was recorded.

[4] = system: Penicillium variable ATCC 32333; test: as above; details: 10 min contact
Source text: as §1, §5, §6, §7

[5] = system: Trichophyton mentagrophytes ATCC 9533; test: as above; details: 10 min contact
Source text: as §1, §5, §6, §7

[6] = system: Salmonella choleraesuis ATCC 10708; test: AOAC Official Method 961.02 Germicidal Spray Method, bacteria on glass carriers; details: 10 min contact
Experimental: All experiments were conducted according to the protocol outlined in AOAC Official Method 961.02 (Germicidal Spray Method), which is a carrier-based method used to evaluate disinfection efficacy of aerosol/pump-based spray products and liquid products for registration with regulatory agencies such as the U.S. EPA and Health Canada.
as §1
Method Adapted to the Preparation of Bacteria Cultures from −80° C. Freshly Recovered Stock. […]

CCCCCCCCCCCCCCCC[N+](C)(C)C.[Br-] [CTAB, cetyltrimethylammonium bromide]
40%: Staphylococcus aureus Growth Rate ([1]; CTAB 0.0500% in water (no CMC)) | Staphylococcus aureus Growth Rate ([1]; CTAB 0.1000% in water (no CMC))
ineffective: efficacy against Pseudomonas ([2]; CTAB on its own in water, 0.05%)
0%: Penicillium variable Growth Rate ([4]; CTAB 0.0100% in water (no CMC)) | Penicillium variable Growth Rate ([4]; CTAB 0.0500% in water (no CMC)) | Penicillium variable Growth Rate ([4]; CTAB 0.1000% in water (no CMC)) | Trichophyton mentagrophytes Growth Rate ([5]; CTAB 0.0010% in water (no CMC)) | Trichophyton mentagrophytes Growth Rate ([5]; CTAB 0.0100% in water (no CMC)) | Trichophyton mentagrophytes Growth Rate ([5]; CTAB 0.0500% in water (no CMC)) | Salmonella choleraesuis Growth Rate ([6]; CTAB 0.1000% in water (no CMC))
100%: Staphylococcus aureus Growth Rate ([1]; CTAB 0.0010% in water (no CMC)) | Staphylococcus aureus Growth Rate ([1]; CTAB 0.0100% in water (no CMC)) | Pseudomonas aeruginosa Growth Rate ([2]; CTAB 0.0010% in water (no CMC)) | Pseudomonas aeruginosa Growth Rate ([2]; CTAB 0.0100% in water (no CMC)) | Pseudomonas aeruginosa Growth Rate ([2]; CTAB 0.0500% in water (no CMC)) | Aspergillus niger Growth Rate ([3]; CTAB 0.0010% in water (no CMC)) | Aspergillus niger Growth Rate ([3]; CTAB 0.0100% in water (no CMC)) | Aspergillus niger Growth Rate ([3]; CTAB 0.0500% in water (no CMC)) | Aspergillus niger Growth Rate ([3]; CTAB 0.1000% in water (no CMC)) | Penicillium variable Growth Rate ([4]; CTAB 0.0010% in water (no CMC)) | Salmonella choleraesuis Growth Rate ([6]; CTAB 0.0100% in water (no CMC))
